From patent US20250115578A1, “AROMATIC FUSED RING NAV1.8 INHIBITOR, AND USE THEREOF” (CHENGDU KANGHONG PHARMACEUTICAL CO., LTD., priority 2022, published 2025)
pIC50: −log10 of the molar value.

What was measured:
hNav1.8 = hNav1.8 (Homo sapiens (Human), UniProt Q9Y5Y9); assay: Manual patch clamp, Method 1 (CHO cell line stably expressing hNav1.8); type: cell-based; conditions: for inhibition at 0.01 µM: 10 nM; for inhibition at 0.01 µM / inhibition at 0.1 µM: Method 1, CHO-hNav1.8, read-out: Inhibition rate of hNav1.8; for inhibition at 0.1 µM: 100 nM; for pIC50: Method 1, CHO-hNav1.8, manual patch clamp, resting state, read-out: IC50 inhibitory activity against hNav1.8
Sequence of hNav1.8 (Q9Y5Y9 whole entry): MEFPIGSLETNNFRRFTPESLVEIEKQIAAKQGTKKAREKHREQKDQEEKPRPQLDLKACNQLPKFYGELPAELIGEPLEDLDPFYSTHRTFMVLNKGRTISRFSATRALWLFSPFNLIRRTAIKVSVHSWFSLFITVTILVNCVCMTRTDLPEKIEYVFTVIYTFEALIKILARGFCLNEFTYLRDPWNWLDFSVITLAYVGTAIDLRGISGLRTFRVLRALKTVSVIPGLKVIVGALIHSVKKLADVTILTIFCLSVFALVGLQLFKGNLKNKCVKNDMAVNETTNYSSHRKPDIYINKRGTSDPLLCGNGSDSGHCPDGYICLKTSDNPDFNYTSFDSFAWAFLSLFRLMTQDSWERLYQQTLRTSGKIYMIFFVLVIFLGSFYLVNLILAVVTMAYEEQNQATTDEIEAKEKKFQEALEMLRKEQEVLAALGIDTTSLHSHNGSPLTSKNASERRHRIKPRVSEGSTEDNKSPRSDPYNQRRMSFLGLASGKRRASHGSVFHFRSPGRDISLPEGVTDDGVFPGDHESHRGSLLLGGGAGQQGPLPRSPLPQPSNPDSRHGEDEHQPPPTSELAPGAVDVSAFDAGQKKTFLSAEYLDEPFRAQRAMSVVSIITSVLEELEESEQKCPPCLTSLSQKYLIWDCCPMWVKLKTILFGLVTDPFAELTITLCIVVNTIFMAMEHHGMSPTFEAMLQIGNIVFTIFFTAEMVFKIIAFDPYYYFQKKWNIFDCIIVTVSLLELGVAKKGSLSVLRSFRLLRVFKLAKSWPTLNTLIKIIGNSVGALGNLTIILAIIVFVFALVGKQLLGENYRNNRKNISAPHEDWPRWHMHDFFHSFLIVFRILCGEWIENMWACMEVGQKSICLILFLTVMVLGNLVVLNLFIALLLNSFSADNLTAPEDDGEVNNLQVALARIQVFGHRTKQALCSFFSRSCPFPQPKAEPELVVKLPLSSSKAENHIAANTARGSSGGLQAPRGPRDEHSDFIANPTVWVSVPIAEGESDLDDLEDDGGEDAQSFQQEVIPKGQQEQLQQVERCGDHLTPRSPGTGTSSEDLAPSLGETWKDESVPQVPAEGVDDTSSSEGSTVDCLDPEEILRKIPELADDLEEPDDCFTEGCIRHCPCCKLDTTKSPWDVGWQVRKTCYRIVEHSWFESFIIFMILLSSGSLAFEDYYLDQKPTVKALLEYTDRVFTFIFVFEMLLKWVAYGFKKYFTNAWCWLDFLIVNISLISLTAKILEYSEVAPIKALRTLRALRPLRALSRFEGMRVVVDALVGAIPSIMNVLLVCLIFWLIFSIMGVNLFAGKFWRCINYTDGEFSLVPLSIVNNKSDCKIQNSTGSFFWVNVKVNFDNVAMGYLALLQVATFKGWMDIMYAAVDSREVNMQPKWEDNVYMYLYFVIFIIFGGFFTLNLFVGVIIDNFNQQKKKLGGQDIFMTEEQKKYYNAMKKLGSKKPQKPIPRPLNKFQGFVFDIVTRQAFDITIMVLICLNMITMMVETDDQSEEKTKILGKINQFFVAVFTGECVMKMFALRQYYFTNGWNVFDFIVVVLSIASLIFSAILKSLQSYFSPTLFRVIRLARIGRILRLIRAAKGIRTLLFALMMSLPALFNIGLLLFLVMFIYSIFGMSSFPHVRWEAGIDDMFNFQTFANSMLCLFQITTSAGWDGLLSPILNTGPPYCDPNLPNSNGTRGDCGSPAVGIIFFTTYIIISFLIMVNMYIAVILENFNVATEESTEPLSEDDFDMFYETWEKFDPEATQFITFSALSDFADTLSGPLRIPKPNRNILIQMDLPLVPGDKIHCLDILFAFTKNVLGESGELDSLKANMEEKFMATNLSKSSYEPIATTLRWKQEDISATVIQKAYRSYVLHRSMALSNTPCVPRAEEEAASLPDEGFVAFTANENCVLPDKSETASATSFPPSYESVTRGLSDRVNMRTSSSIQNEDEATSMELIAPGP
Excerpt: The patch clamp technique is known as the “gold standard” for studying ion channels, and it uses glass microelectrodes to seal the cell membrane to measure the currents of various membrane channel. […] Patch clamp technology can evaluate the inhibition strength of different compounds on different states of Navs by measuring the changes of membrane channel currents after different compounds bind to different states of Navs.
The representative compounds of the present invention used stable CHO or HEK293 cell lines transfected with specific ion channels to measure the effect of the compounds on Nav1.8 currents by manual patch clamp test, to evaluate their inhibition strength.
The assay protocol of manual patch clamp is as follows:
CHO cell lines with stable expression of hNav1.8 were cultured in F12 medium containing 10% fetal bovine serum at a constant temperature of 37° C., and the carbon dioxide concentration was maintained at 5%. The old culture medium was removed and washed once with PBS, then 1 mL 0.25%-Trypsin-EDTA solution was added and incubated at 37° C. for 1 min. When the cells were detached from the bottom of the dish, 5 mL of the complete medium preheated at 37° C. was added, and the aggregated cells were separated by gently blowing with a straw. The cell suspension was transferred into a sterile centrifuge tube and centrifuged at 1000 rpm for 5 min to collect cells. The cells were then inoculated into a cell culture dish with a diameter of 6 cm (2.5×10^5 cells/petri dish, 5 mL medium) for expansion or maintenance.
In order to maintain the electrophysiological activity of the cells, the cell density must be less than 80%.
The cells were separated with 0.25%-Trypsin-EDTA before the assay, and 5×10^3 cells were seeded on a cover slip and cultured in a 24-well plate (final volume: 500 μL) for 18 h. Then the assay was conducted.
The compounds prepared in the examples of the present invention were dissolved in dimethyl sulfoxide (DMSO) and prepared into DMSO stock solution with a concentration of 10 mM for assay. And it was diluted to various concentrations with extracellular solution (140 mM NaCl, 3.5 mM KCl, 1 mM MgCl2, 2 mM CaCl2), 10 mM Glucose, 10 mM HEPES, 1.25 mM NaH2PO4, pH=7.4 regulated by NaOH), and the final concentration of DMSO in each compound sample was 0.10% or less.
A capillary glass pipette (BF150-86-10, Sutter Instruments) was pulled into a recording electrode with a micropipette puller (P97, Sutter Instruments). The micromanipulator (MP285, Sutter Instruments) was manipulated under an inverted microscope (IX71, Olympus) to make the recording electrode contact the cell and negative pressure suction was applied to achieve a GQ seal. Then, rapid capacitance compensation was performed, and negative pressure was continued, cell membrane was broken by suction, and whole cell recording mode was formed. Then the slow capacitance was compensated and the membrane capacitance and series resistance were recorded without leakage compensation. When the whole cell recording current was stabilized, dosing was initiated, and the next concentration was detected after acting 5 minutes of each drug concentration. Multiple cells were independently repeated during the recording period. All electrophysiological assays were performed at room temperature. Specifically, 6 concentrations (measuring IC50) or 2 concentrations (preliminary screening) were set for each compound, and the percentage of inhibition of sodium channels was determined by calculating the relative percentage of peak current generated before and after each concentration compound treated cells, and the IC50 value or percentage of inhibition at a specific concentration was calculated using IGOR pro software.

[1] = Stability assay for human liver microsomes in vitro; type: in vitro ADME; conditions: 1 μM compound, 0.5 mg/mL liver microsomes, read-out: Human liver microsome stability T1/2
Protocol: • Human liver microsomes, purchased from Corning or Xenotech, stored in a −80° C. refrigerator. • Nicotinamide adenine dinucleotide phosphate (NADPH), Chem-impex international, 00616 • Control compounds: testosterone, diclofenac, propafenone
• Water bath (HH-60, Guohua, Changzhou, China) • Pipette workstation (PP-550DS, Apricot, Covina, USA) • Centrifuge (5810R, Eppendorf, Hamburg, Germany) • Mass Spectrometer (Sciex API 4000, Singapore) • High Performance Liquid Chromatography (LC 20-AD, Shimadzu, Kyoto, Japan) • Sampler (ADDA, Apricot Designs, California, USA)
• Stock solution: 10 mM in DMSO • Working solution concentration preparation: 10 mM stock solution was diluted to 100 μM with 100% acetonitrile (organic phase content: 99% ACN, 1% DMSO)
Two 96-well incubation plates were named T60 incubation plate and NCF60 incubation plate.
445 μL microsomal working solution (liver microsomal protein concentration: 0.56 mg/mL) was added to the T60 and NCF60 incubation plates respectively, then the incubation plates above were placed in a water bath at 37° C. for pre-incubation approximately 10 minutes.
After the pre-incubation finished, 5 μL of the test compound working solution was added to the T60 and NCF60 incubation plates respectively, and mixed well. 50 μL potassium phosphate buffer was added to each well on the NCF60 incubation plate to start the reaction. 180 μL termination solution (acetonitrile solution containing 200 ng/mL tolbutamide and 200 ng/mL labetalol) and 6 uL working solution of NADPH regeneration system were added to the TO termination plate, and 54 μL samples were removed from the T60 incubation plate to the TO termination plate (TO sample generated). The reaction was initiated by adding 44 μL of NADPH regenerating system working solution per well on the T60 incubation plate. Only 54 μL microsomal working solution, 6 uL NADPH regeneration system working solution, and 180 μL termination solution were added to the Blank plate. Therefore, in the samples of the test or control compounds, the final reaction concentration of the compounds, testosterone, diclofenac and propafenone was 1 μM, the concentration of the liver microsomes was 0.5 mg/mL, and the final concentration of DMSO and acetonitrile in the reaction system was 0.01% (v/v) and 0.99% (v/v), respectively.
After incubation for an appropriate time (e.g. 5, 10, 20, 30, and 60 minutes), 180 μL of termination solution (acetonitrile solution containing 200 ng/mL tolbutamide and 200 ng/mL labetalol) was added to the sample hole of each termination plate, respectively. After that, 60 μL sample was removed from the T60 incubation plate to terminate the reaction.
All sample plates were shaken evenly and centrifuged at 3220×g for 20 min. Then 80 μL supernatant was taken from each well and diluted to 240 μL pure water for LC-MS/MS analysis.
All samples were injected for analysis.

[2] = Assay of kinetic solubility; type: physicochemical; conditions: aqueous buffer, kinetic from dmso stock, pH 3.5 phosphate buffer, 25° C.
Protocol: The stock solutions of the test compound and the standard progesterone were prepared in DMSO at the concentration of 10 mM.
30 μL of stock solutions at 10 mM of the test compounds and standard substance were placed in order into their proper 96-well plate. 970 μL phosphate buffer at the specified pH was added to the proper vial of the sample plate. The assay was performed in duplicate. A stirring stick was added to each vial and the teflon/silicone plug was capped. The sample tray was then placed in the Eppendorf Thermomixer Comfort and shaken at 1100 RPM at 25° C. for 2 hours. After 2 hours, plugs were removed, a big magnet was used to remove the stirring sticks, and samples were transferred from the sample plate to the filter plate. Vacuum pump was used to create negative pressure and filtered the samples. Transferred 5 μL of the filtrate to the new sample plate, then added 5 μL DMSO and 490 μL water/acetonitrile (V/V=1/1) to dilute the solvent. The dilution factor may be adjusted according to the solubility values of the substances to be tested or the strength of its LC-MS signal response.
From the 10 mM DMSO stock solution, 15 μL of that was transferred into the empty plate and 485 μL DMSO was added to prepare a 300 μM standard solution. From the 300 μM standard solution plate, 5 μL of that was transferred to another empty plate and 5 μL phosphate buffer at specified pH and 490 μL water/acetonitrile (V/V=1/1) dilution solvent were added to the standard solution to get a final concentration of 3 μM. The concentration of the standard solution may be adjusted according to the strength of its LC-MS signal response.
The sample plate was placed into the sample tray of the automatic sampler and the samples were evaluated by LC-MS/MS analysis.
All calculations were carried out by Microsoft Excel.
The sample filtrate was analyzed and quantified against a standard of known concentrations using LC-MS spectral peaks to identify and quantify. The solubility values of the control drug and the compounds to be tested were calculated as the following formula: • [Sample]: concentration of the sample • AREASample: peak area of the sample • INJ VOLStd: standard sample injection volume • DFSample: sample dilution factor • [STD]: standard substance concentration • AREAStd: peak area of standard substance • INJ VOLSample: sample injection volume

Row | SMILES | inhibition at 0.01 µM (hNav1.8) | inhibition at 0.1 µM (hNav1.8) | half-life at 1 µM [1] | pIC50 (hNav1.8) | solubility kinetic at 2 h [2]
1 | NC(=O)c1cc(NC(=O)c2nc3ccc(Cl)cc3cc2N2CCCC(F)(F)CC2)ccn1 [Example 20, N-(2-carbamoylpyridin-4-yl)-6-chloro-3-(4,4-difluoroazepan-1-yl)quinoline-2-carboxamide] | 19.5% | 81.1% |  |  | 
2 | O=C(Nc1ccc[n+]([O-])c1)c1nc2ccccc2nc1N1CCCC(F)(F)CC1 [Example 01] | 0.36% | 41.8% | > 145 min |  | 
3 | NC(=O)c1cc(NC(=O)c2cc3cccnc3cc2N2CCCC(F)(F)CC2)ccn1 [Example 18, N-(2-carbamoylpyridin-4-yl)-7-(4,4-difluoroazepan-1-yl)quinoline-6-carboxamide] | -3.14% | 21.5% |  |  | 
4 | NC(=O)c1cc(NC(=O)c2nc3ccccc3cc2N2CCCC(F)(F)CC2)ccn1 [Example 15, N-(2-carbamoylpyridin-4-yl)-3-(4,4-difluoroazepan-1-yl) quinoline-2-carboxamide] | 15.4% | 49.9% |  |  | 
5 | NC(=O)c1cc(NC(=O)c2nc3ccccc3cc2N2CCCC(F)(F)CC2)ccc1F [Example 11, N-(3-carbamoyl-4-fluorophenyl)-3-(4,4-difluoroazepan-1-yl) quinoline-2-carboxamide] | 15.3% | 72.8% |  |  | 
6 | NS(=O)(=O)c1cc(NC(=O)c2cc3cc(F)c(F)cc3nc2N2CCCC(F)(F)CC2)ccn1 [Example 17, 2-(4,4-difluoroazepan-1-yl)-6,7-difluoro-N-(2-sulfamoylpyridine-4-yl)quinoline-3-carboxamide] | 98.3% | 100% | > 145 min | 10.02 | 
7 | O=C(Nc1cn[nH]c(=O)c1)c1nc2ccccc2nc1N1CCCC(F)(F)CC1 [Example 04, 3-(4,4-difluoroazepan-1-yl)-N-(6-carbonyl-1,6-dihydropyridazin-4-yl)quinoxaline-2-carboxamide] | 3.33% | 46% | 79.9 min |  | 

Other lines, results leading:

Row | inhibition at 0.01 µM (hNav1.8) | inhibition at 0.1 µM (hNav1.8) | half-life at 1 µM [1] | pIC50 (hNav1.8) | solubility kinetic at 2 h [2] | SMILES
8 |  |  | 56.6 min | 9.44 |  | NC(=O)c1cc(NC(=O)c2cc3cc(F)c(F)cc3nc2N2CCCC(F)(F)CC2)ccc1F [Example 21, N-(3-carbamoyl-4-fluorophenyl)-2-(4,4-difluoroazepan-1-yl)-6,7-difluoroquinoline-3-carboxamide]
9 | 0.44% | 16.6% |  |  |  | NC(=O)c1cc(NC(=O)c2cc3cccnc3cc2N2CCCC(F)(F)CC2)ccc1F [Example 19, N-(3-carbamoyl-4-fluorophenyl)-7-(4,4-difluoroazepan-1-yl)quinoline-6-carboxamide]
10 | 38.1% | 84.7% |  |  | < 1.56 µM | Cc1cc(F)ccc1Oc1cc(C(F)(F)F)ccc1C(=O)Nc1cc[nH]c(=O)c1 [Example 32, 2-(4-fluoro-2-methylphenoxy)-N-(2-carbonyl-1,2-dihydropyridin-4-yl)-4-(trifluoromethyl)benzamide, reference compound]
11 |  | 83.7% |  |  | < 1.56 µM | CNS(=O)(=O)c1cc(NC(=O)c2cc3cc(F)c(F)cc3nc2N2CCCC(F)(F)CC2)ccn1 [Example 29, 2-(4,4-difluoroazepan-1-yl)-6,7-difluoro-N-(2-(N-methylsulfamoyl)pyridin-4-yl)quinoline-3-carboxamide]
12 | 95.8% | 100% |  |  |  | NC(=O)c1cccc(NC(=O)c2cc3cc(F)c(F)cc3nc2N2CCCC(F)(F)CC2)c1 [Example 12, N-(3-carbamoylphenyl)-2-(4,4-difluoroazepan-1-yl)-6,7-difluoroquinoline-3-carboxamide]
13 | 19.7% | 70% | 79.3 min |  |  | O=C(Nc1cc[nH]c(=O)c1)c1nc2ccccc2nc1N1CCCC(F)(F)CC1 [Example 03, 3-(4,4-difluoroazepan-1-yl)-N-(2-carbonyl-1,2-dihydropyridin-4-yl)quinoxaline-2-carboxamide]
14 |  | 90.7% |  |  |  | COc1ccc2cc(C(=O)Nc3ccnc(C(N)=O)c3)c(N3CCCC(F)(F)CC3)nc2c1 [Example 22, N-(2-carbamoylpyridin-4-yl)-2-(4,4-difluoroazepan-1-yl)-7-methoxyquinoline-3-carboxamide]
